Measured values taken from EP4268823A1, “COMPOUND FOR TREATING NEUROINFLAMMATION” (Universitätsklinikum Hamburg-Eppendorf, priority 2022, dated 2023).

Assays:
cyclooxygenase-2 (COX-2) = assay: COX-2 immunostaining after glutamate stimulation; type: cell-based, mouse; conditions: glutamate excitotoxicity ± UNC0642
Protocol: For primary cortical cultures pregnant C57BL/6J, or G9afl/fl;Snap25-Cre mice were euthanized. To ensure comparability between genotypes, only embryos from heterozygous breeding's were used. Brainstem tissue of each embryo for genotyping was reserved and cortices were isolated, dissociated and cells were plated at a density of 1 × 10^5 cells per 1 cm^2 on poly-D-lysine-coated wells (5 µM Sigma-Aldrich, cat. no. A-003-M). If not stated otherwise, cells were maintained in neurobasal plus medium (supplemented with B27 plus, penicillin, streptomycin and L-glutamine; Gibco, cat. no. A3582901) at 37°C, 5% CO^2 and a relative humidity of 98%, and treated with 1 µM cytarabine (Sigma-Aldrich, cat. no. BP383) at 1 day in vitro (div) to inhibit glial cell proliferation. If no cytarabine was applied cells were maintained in PNBM medium (supplemented with neural cell survival factor, gentamycin and L-glutamine; Lonza). Throughout, cultures after 14-23 div were used for experiments. G9a inhibitor UNC0642 was used in a concentration of 1 µM and cultures were pre-treated 24 hours before further experimental procedures.
(§1) Immunocytochemistry was performed as described previously (15). […] Immunostainings were analyzed with a Zeiss LSM 700 confocal microscope.

G9a = molecular target: T1, G9a (Homo sapiens, UniProt Q96KQ7); assay: H3K9me2 immunostaining in hiPSC neurons after erastin; type: cell-based; conditions: erastin + UNC0642
T1 construct: H3K9me2 immunostaining and quantification in response to ferroptosis induction with erastin in hiPSC neurons; endogenous in cells; host or cells: neurons differentiated from human iPSCs (ZIPi013-B)
T1 sequence (Q96KQ7 1-1210): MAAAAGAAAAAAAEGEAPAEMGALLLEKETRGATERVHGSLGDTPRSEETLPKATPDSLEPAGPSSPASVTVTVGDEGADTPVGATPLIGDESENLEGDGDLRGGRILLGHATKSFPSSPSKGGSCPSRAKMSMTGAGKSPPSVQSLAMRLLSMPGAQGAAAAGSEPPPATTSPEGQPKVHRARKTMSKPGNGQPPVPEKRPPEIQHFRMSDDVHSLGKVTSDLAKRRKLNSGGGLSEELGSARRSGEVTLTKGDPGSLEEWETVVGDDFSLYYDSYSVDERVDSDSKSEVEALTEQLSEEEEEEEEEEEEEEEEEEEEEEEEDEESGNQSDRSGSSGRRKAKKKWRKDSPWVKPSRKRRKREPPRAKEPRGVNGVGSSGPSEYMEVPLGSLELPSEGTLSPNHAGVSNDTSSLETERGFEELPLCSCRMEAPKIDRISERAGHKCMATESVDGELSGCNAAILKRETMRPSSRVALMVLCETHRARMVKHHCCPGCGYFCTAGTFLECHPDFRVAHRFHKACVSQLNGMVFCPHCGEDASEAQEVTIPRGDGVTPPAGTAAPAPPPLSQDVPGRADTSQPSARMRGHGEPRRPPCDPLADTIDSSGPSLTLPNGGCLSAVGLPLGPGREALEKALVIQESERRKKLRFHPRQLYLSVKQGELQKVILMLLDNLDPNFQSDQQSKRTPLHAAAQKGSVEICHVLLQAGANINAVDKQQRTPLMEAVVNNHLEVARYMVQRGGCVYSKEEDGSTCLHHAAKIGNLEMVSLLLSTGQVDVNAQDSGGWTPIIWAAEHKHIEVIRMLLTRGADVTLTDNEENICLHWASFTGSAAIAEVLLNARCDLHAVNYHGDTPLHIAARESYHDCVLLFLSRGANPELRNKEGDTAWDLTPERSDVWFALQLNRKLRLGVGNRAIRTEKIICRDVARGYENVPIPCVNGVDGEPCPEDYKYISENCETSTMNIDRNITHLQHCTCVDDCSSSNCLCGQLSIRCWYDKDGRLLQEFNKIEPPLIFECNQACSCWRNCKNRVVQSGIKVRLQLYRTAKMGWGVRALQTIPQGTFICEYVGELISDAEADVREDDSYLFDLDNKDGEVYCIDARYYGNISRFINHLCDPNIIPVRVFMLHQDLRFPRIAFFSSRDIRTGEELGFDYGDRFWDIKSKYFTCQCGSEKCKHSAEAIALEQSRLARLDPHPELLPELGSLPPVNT
From the text: Human iPSCs (ZIPi013-B) (83) were maintained under feeder-free conditions on Matrigel (Corning)-coated plates in mTeSR1 medium (Stem Cell Technologies, cat. no. 85850). For neuronal induction, iPSCs were dissociated with Accutase and seeded at a density of 3 × 10^6 cells per well on AggreWell800 plates (10,000 cells per embryoid body (EB), Stem Cell Technologies) in SMADi Neural Induction Medium (SMADi NIM, Stem Cell Technologies, cat. no. 08582) supplemented with […] (Stem Cell Technologies, cat. no. 72302). On day 6, EBs were harvested and cultivated on Matrigel-coated plates in SMADi NIM for 12 days. Newly formed neural rosettes were manually picked and cultured for another 4 days. In order to release neural precursor cells (NPCs), neural rosettes were dissociated with Accutase and were maintained for several passages at high density in Neural Progenitor Medium (Stem Cell Technologies, cat. no. 05833) on Matrigel-coated plates. HiPSC-derived NPCs were differentiated into neurons as previously described (84, 85) with some modifications. Briefly, NPCs were seeded at a density of 1 × 10^5 cells per cm^2 in Neural Progenitor Medium onto Matrigel-coated plates. […]
as §1

COc1cc2c(NC3CCN(C(C)C)CC3)nc(N3CCC(F)(F)CC3)nc2cc1OCCCN1CCCC1 [UNC0642, 2-(4,4-difluoropiperidin-1-yl)-6-methoxy-N-[1-(propan-2-yl)piperidin-4-yl]-7-[3-(pyrrolidin-1-yl)propoxy]quinazolin-4-amine]
induction of COX-2-positive cells (cyclooxygenase-2 (COX-2)): almost completely abolished its induction | increase of H3K9me2 levels in response to erastin-induced ferroptosis (G9a): rescued
